These results are taken from patent publication US20210284615A1, “VORTIOXETINE ANALOGUE AND USE AND PREPARATION THEREOF” (priority 2016, published 2021).

Several values for one entry are separate records, joined by “and”; a condition that tells them apart may be missing. Equal entries are not always repeated. Where two headings read alike, the source gives them in different places.

One series addresses T1, SLC6A4 (Homo sapiens, UniProt P31645).
T1 construct: host or cells: CHO cells (Chinese hamster ovary, Cat #CCL-61), transient transfection with FuGENE HD
The series is described as follows: [3H]5-hydroxytryptamine (5-HT) reuptake inhibition in CHO cells transfected with pcDNA3.1-SLC6A4-His. The note with it: 25 nM [3H]5-hydroxytryptamine, 30 min. The class given is cell-based. How it is done: SLC6A4 gene from plasmid Pcmv6-XL4-SLC6A4 (Origene, Cat #SC119478) was amplified by PCR (polymerase chain reaction), and a HIS tag was added to the C terminal, and then inserted into pcDNA3.1 (−) vector at 5′EcoR1 and 31-lind111 restriction enzyme cutting sites to build pcDNA3.1-SLC6A4-His.
CHO cells in logarithmic growth period (Chinese hamster ovary cells, Institute of Cell Biology, Chinese Academy of Sciences, Cat #CCL-61) were collected and counted. The cells were resuspended in F-12 culture media (Gibco, Cat #11330-032) and inoculated on a 96-well plate with 100 μL (20000 cells/well) per well. It was incubated in 5% CO2 incubator (relative humidity 100%) at 37° C. for 24 h.
The above modified plasmids (0.48 μg) were diluted with Opti-MEM culture medium (25 μL, Gibco, Cat #11058021), and blew gently to mix homogenously. […]
Compound 1 and vortioxetine were respectively diluted to 1 mM with Opti-MEM culture medium, then diluted 10 times per 4 times gradient, and then added to the transfected cell wells by 20 μL/well (the corresponding concentrations were 100 μM-0.0004 μM, in total of 10 concentration points, the concentration ratio between each concentration point was 4, each concentration included 3 parallel wells). […] 50 μL of lysed cell fluid was taken, and 200 μL of scintillation solution was added thereto, and reading was conducted with MicroBeta2. […]

A short description of series [1]: Determination of lipid-water partition coefficient. Type of series: physicochemical. On the procedure:
Vortioxetine hydrobromide (6 mg) and Compound 3 (6 mg) were dissolved respectively in a mixed solution composed of a pH 7.4 of phosphate buffer (3 ml) and n-octyl alcohol (3 ml), and the mixture was allowed to stand for 3 hours at 37° C. The concentration of each compound in water phase and oil phase was respectively determined, and calculated by logP=[…]log (Coil/Cwater). The results are as follows: logPvortioxetine=2.1; logPcompound 3=2.7.

Series [2] relates to 5-HTP induced head-twitch model. The series is described as follows: Head-twitch test in mice (5-HTP induced). Type of series: in vivo, KM mice. The settings on record: 20 mg/kg intraperitoneal injection, then 200 mg/kg 5-HTP, within 0-10 min. On the procedure: KM mice (male, 18-22 g, Experimental Animal Center, Chongqing Medical University) were randomly divided into 6 mice per group. According to the below table, the animals in each experiment group were administrated a solution of corresponding agent, and then 200 mg/kg 5-HTP (5-hydroxytryptophan). The effects of vortioxetine and Compound 3 on the frequency of head-twitch of mice within 0-10 min were determinate (see [i]Brit. J. Pharmacol. (1963), 20, 106-120 for detailed experiment methods).

Series [3] is described as follows: Test of blood drug level in rats. The class given is in vivo, SD rats. The settings on record: for Blood drug level: intragastric, Vortioxetine 20 mg/kg (rats A1-A4), Compound 3 22.8 mg/kg (rats B1-B4), individual rats, in ng/mL (unit assumed). On the procedure:
SD rats (male, 180-220 g, Experimental Animal Center, Chongqing Medical University) were randomly divided into groups with 4 rats per group. Food was prohibited, but not water, for 8 hours before administration.
Blood samples were collected from the orbital venous plexus at 0, 1, 2, 4, 6, 8 h after administration, wherein at least 0.3 ml was taken at each time point, and heparin was used for anticoagulant. The obtained whole blood (200 μl) was added to acetonitrile (800 LA, vortexed and shaken for 1 min, and then centrifuged for 10 min at 12000 rpm. The supernatant was taken and kept at −20° C., and the blood drug level of the supernatant was determined by LC/MS/MS. The data for each animal in groups are as follows: […]

In a further series the test system is KM mice. The series is described as follows: Forced swimming test in mice. Type of series: in vivo. The settings on record: 20 mg/kg oral gastric lavage, 1 hour after administration, last 4 min of 6 min swim. On the procedure:
KM mice (male, 38-42 g, Experimental Animal Center, Chongqing Medical University) were randomly divided into groups with 6 mice per group. After fasted for 4 h, the mice were placed in a glass cylinder with a diameter of 18 cm, height of 40 cm, water depth of 15 cm (water temperature 25° C.) to swim for 6 min, then dried with a warm air blower. The animals in each experiment group were administrated a solution of corresponding agent (Oral administration of gastric lavage, 20 mg/kg) according to the table below. After 1 hour of administration, the mice were placed in a glass cylinder with a diameter of 18 cm, height of 40 cm, water depth of 15 cm (water temperature 25° C.) to swim for 6 min. The swimming of the mice was recorded within 6 min by a camera system, and the data were automatically collected and analyzed by Noldus software. The quiescent time during swimming was recorded and counted within the last 4 min (for the experiment method, see THE JOURNAL OF PHARMACOLOGY AND EXPERIMENTAL THERAPEUTICS (2012), Vol. 340, No. 3: 666-675).

The conditions of series [4]: human, cited from earlier work.
Series [5] in a line: Test of brain concentration and plasma concentration. The class given is in vivo, KM mice. The note with it: male, KM, mouse, Compound 1 23.6 mg/kg. How it is done:
KM mice (male, 18-22 g, Experimental Animal Center, Chongqing Medical University) were randomly divided into groups with 6 mice per group. In accordance with the table below, the animals in each group were respectively injected intravenously with equal moles of vortioxetine (20 mg/kg) and Compound 1 (23.6 mg/kg). Samples of blood and brain tissue of the mouse were taken at 1 and 2 hours after injection. The concentrations of vortioxetine and Compound 1 in blood plasma and brain tissue were respectively measured, and the ratios (concentration in brain tissue/concentration in blood plasma) were calculated.

For series [6] the following is noted: oral administration; cited from earlier work.
The conditions of series [7]: 2 h after oral 20 mg/kg, male Listar Hooded rats; cited from earlier work.

T1 sequence (P31645 whole entry): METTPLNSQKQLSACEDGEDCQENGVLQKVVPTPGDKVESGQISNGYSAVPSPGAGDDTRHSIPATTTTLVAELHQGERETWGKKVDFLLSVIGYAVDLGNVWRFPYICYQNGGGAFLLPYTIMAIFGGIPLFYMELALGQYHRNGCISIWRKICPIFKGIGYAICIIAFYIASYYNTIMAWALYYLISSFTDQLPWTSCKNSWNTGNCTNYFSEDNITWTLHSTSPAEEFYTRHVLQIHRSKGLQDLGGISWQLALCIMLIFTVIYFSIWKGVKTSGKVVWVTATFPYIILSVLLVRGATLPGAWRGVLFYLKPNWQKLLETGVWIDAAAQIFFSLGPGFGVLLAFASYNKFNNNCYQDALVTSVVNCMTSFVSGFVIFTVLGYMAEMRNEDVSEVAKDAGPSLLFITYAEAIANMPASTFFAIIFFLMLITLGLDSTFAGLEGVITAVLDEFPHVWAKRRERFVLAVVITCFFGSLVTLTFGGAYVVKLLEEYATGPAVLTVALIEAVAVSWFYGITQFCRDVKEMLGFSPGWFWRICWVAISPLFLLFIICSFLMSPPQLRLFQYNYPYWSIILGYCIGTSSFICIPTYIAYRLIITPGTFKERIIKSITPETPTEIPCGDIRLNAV

Usually IC50 stands for the concentration that inhibits the measured activity by half. Lower therefore signals inhibition by little substance. As a reminder, the melting point is the temperature, or range, at which the solid turns liquid. In the case of `Cc1cc(C(F)(F)F)ccc1Sc1ccccc1N1CCNCC1` [Compound 1, 1-[2-(2-methyl-4-trifluoromethylphenylthio)phenyl]piperazine], the melting point lay in the range of 206 to 208 °C. Also, the concentration for half-maximal inhibition (IC50) on SLC6A4 was 231 nM.

In general, logP refers to the decadic logarithm of the partition coefficient of the neutral form, usually between octanol and water. On to `Br.Cc1cc(C(F)(F)F)ccc1Sc1ccccc1N1CCNCC1` [Compound 3, 1-[2-(2-methyl-4-trifluoromethylphenylthio)phenyl] piperazine hydrobromide], for which the melting point lay within 170 to 172 °C. Also, in [1] (pH 7.4), the lipophilicity (logP) at 3 h worked out at 2.7. The same compound gave a Number of head-twitch in [2] of 45.0 ± 29.0. Further, the Blood drug level in series [3] (0 h, hydrobromide) is 0.815 and 2.195 and 1.62 and 0.975. The Blood drug level in [3] (1 h, hydrobromide) was 458.925 and 276.675 and 351.38 and 412.775. Further, the Blood drug level in series [3] (2 h, hydrobromide) is 587.71 and 237.72 and 441.03 and 648.63. The Blood drug level in series [3] (4 h, hydrobromide) was 726.37 and 181.565 and 334.54 and 297.135. Further, the Blood drug level in series [3] (6 h, hydrobromide) was 421.06 and 139.79 and 230.075 and 159.715. In addition, in series [3] (8 h, hydrobromide), the Blood drug level was 386.805 and 37.895 and 109.47 and 78.5. The “blood drug levels compared with equal moles of vortioxetine” value in series [3] (oral, all time points) is on record as “higher”. This compound came in with a Quiescent time with KM mice of 107 ± 31 s.

As to `Cc1cc(C(=O)O)ccc1Sc1ccccc1N1CCNCC1` [LUAA34443], the “share of LUAA34443 and LUAA34443 glucuronide together” value in series [4] (oral 14C-vortioxetine free base 50 mg, one combined value for both metabolites) is recorded as 44%.

With `Cc1ccc(Sc2ccccc2N2CCNCC2)c(C)c1` [Vortioxetine], the lipophilicity (logP) at 3 h in [1] (n-octyl alcohol / pH 7.4 phosphate buffer, pH 7.4 phosphate buffer / n-octyl alcohol, 3 hours at 37° C., read-out: logP (lipid-water partition coefficient)) amounted to 2.1. Further, the midpoint of inhibition against SLC6A4, the IC50, lay at 267 nM. In series [2], this compound displayed a Number of head-twitch of 56 ± 10. The Kp at 1 h in series [5] (brain/plasma, 1 hour after intravenous injection, vortioxetine 20 mg/kg, read-out: Concentration ratio in brain tissue and plasma) was determined as 60.2 ± 8.64. Moreover, in series [5] (brain/plasma, 2 hours after intravenous injection, vortioxetine 20 mg/kg, read-out: Concentration ratio in brain tissue and plasma), the Kp at 2 h came out at 44.6 ± 13.1. In addition, the concentration at 1 h in [5] (brain, 1 hour after intravenous injection, equal moles: vortioxetine 20 mg/kg, read-out: Concentration in brain tissue) is 15400 ± 1400 ng/g; in [5] (plasma, 1 hour after intravenous injection, vortioxetine 20 mg/kg, read-out: Blood drug level), 261 ± 53.5 ng/mL. Also, the concentration at 2 h in series [5] (brain, 2 hours after intravenous injection, vortioxetine 20 mg/kg, read-out: Concentration in brain tissue) is 7490 ± 560 ng/g; in series [5] (plasma, 2 hours after intravenous injection, vortioxetine 20 mg/kg, read-out: Blood drug level), 167 ± 49.5 ng/mL. Besides, the Blood drug level is 0 in [3] (0 h); 48.59 and 163.07 and 183.96 and 256.56 in series [3] (1 h); 85.335 and 149.685 and 164.88 and 195.125 in [3] (2 h); 34.54 and 90.305 and 94.53 and 164.845 in series [3] (4 h); 17.095 and 47.74 and 40.91 and 72.6 in series [3] (6 h); 7.13 and 6.76 and 23.35 and 26.315 in series [3] (8 h). This compound also had a Quiescent time in the series on KM mice of 136 ± 37 s. In addition, in [6], the bioavailability entry was “about 75%”. For the same compound, the “distribution concentration in brain” value in [7] was 2.77 µg/g. The “distribution concentration in kidney” value in series [7] was 10.3 µg/g. In addition, the “distribution concentration in liver” value in series [7] is 22.3 µg/g. Moreover, in series [7], the “distribution concentration in lung” value is 15.5 µg/g. Besides, in series [4] (4 hours after oral 14C-vortioxetine free base 50 mg), the “parent drug share in plasma” value is “about 8%”.
